# Measurements: patent US5332731A, “Cephalosporin derivatives” (Meiji Seika Kaisha, Ltd., priority 1989, dated 1994)
# Experiments:
# Experiment in all cases: antibacterial activity, MIC by standard serial dilution method
# Format in all cases: cell-based
# [1] = tested on: Escherichia coli W3630 RGN823; settings: W3630RGN823
# Description: (§1) Antibacterial activity of Compounds Nos. 1, 3, 5, 7, 9, 11, 13, 15, 17, 19, 21, 23, 25, 27, 29, 31, 33, 35 and 37 indentified hereinbefore which are the particular examples of the new cephalosporin derivative of general formula (I) according to this invention and which are in the form of the free carboxylic acid was estimated by determining the minimum inhibitory concentrations (MIC., μg/ml) of these compounds against a variety of bacteria according to a standard serial dilution method.
# [2] = tested on: Marganella morganii 1510
# Description: as §1
# [3] = tested on: Citrobacter freundii GN346
# Description: as §1
# [4] = tested on: Escherichia coli NIHJ JC-2; settings: NIHJJC2
# Description: as §1
# [5] = tested on: Marganella morganii 1510/S-1
# Description: as §1
# [6] = tested on: Escherichia coli GN206
# Description: as §1
# [7] = tested on: Escherichia coli 255
# Description: as §1
# [8] = tested on: Enterobacter cloacae G-0008; settings: G0008
# Description: as §1
# [9] = tested on: Pseudomonas aeruginosa GN10362
# Description: as §1
# [10] = tested on: Serratia marcescens GN10857
# Description: as §1
# [11] = tested on: Klebsiella pneumoniae GN69
# Description: as §1
# [12] = tested on: Entrobacter faecalis W-73
# Description: as §1
# [13] = tested on: Klebsiella pneumoniae PCI602
# Description: as §1
# [14] = tested on: Staphylococcus aureus 209P JC-1
# Description: as §1
# [15] = tested on: Proteus vulgaris GN76/C-1
# Description: as §1
# [16] = tested on: Citrobacter freundii GN346/16
# Description: as §1
# [17] = tested on: Enterobacter hirae ATCC8043
# Description: as §1
# [18] = tested on: Enterobacter cloacae GN7471
# Description: as §1
# [19] = tested on: Serratia marcescens No. 1
# Description: as §1
# [20] = tested on: Escherichia coli 255/S-1; settings: 255/S1
# Description: as §1
# [21] = tested on: Staphylococcus epidermidis ATCC14990
# Description: as §1
# [22] = tested on: Proteus vulgaris GN76
# Description: as §1
SMILES,MIC [1] [µg/mL],MIC [2] [µg/mL],MIC [3] [µg/mL],MIC [4] [µg/mL],MIC [5] [µg/mL],MIC [6] [µg/mL],MIC [7] [µg/mL],MIC [8] [µg/mL],MIC [9] [µg/mL],MIC [10] [µg/mL],MIC [11] [µg/mL],MIC [12] [µg/mL],MIC [13] [µg/mL],MIC [14] [µg/mL],MIC [15] [µg/mL],MIC [16] [µg/mL],MIC [17] [µg/mL],MIC [18] [µg/mL],MIC [19] [µg/mL],MIC [20] [µg/mL],other results
"CO/N=C(\C(=O)NC1C(=O)N2C(C(=O)O)=C(SCC3CCCO3)CS[C@H]12)c1csc(N)n1 (stereo partly shown) [Compound No. 1, 7-[(Z)-2-(2-aminothiazol-4-yl)-2-methoxyiminoacetamido]-3-tetrahydrofurfurylthio-3-cephem-4-carboxylic acid]",1.56,50,> 100,1.56,0.39,6.25,25,1.56,> 100,100,0.39,100,0.78,0.2,3.13,3.13,12.5,50,0.78,0.78,MIC [21]: 0.78 µg/mL; MIC [22]: 0.2 µg/mL
"CO/N=C(\C(=O)NC1C(=O)N2C(C(=O)O)=C(SC3CCOC3)CS[C@H]12)c1csc(N)n1 (stereo partly shown) [Compound No. 3, 7-[(Z)-2-(2-aminothiazol-4-yl)-2-methoxyiminoacetamido]-3-(tetrahydrofuran-3-yl)thio-3-cephem-4-carboxylic acid]",0.78,25,> 100,0.39,0.2,12.5,50,12.5,> 100,100,0.2,> 100,0.2,0.2,1.56,3.13,12.5,50,12.5,0.39,MIC [21]: 0.39 µg/mL; MIC [22]: 0.1 µg/mL
"CO/N=C(\C(=O)NC1C(=O)N2C(C(=O)O)=C(SCC3COC(C)(C)O3)CS[C@H]12)c1csc(N)n1 (stereo partly shown) [Compound No. 5, 7-[(Z)-2-(2-aminothiazol-4-yl)-2-methoxyiminoacetamido]-3-(2,2-dimethyl-1,3-dioxolan-4-yl)methylthio-3-cephem-4-carboxylic acid]",1.56,100,> 100,1.56,0.78,12.5,100,3.13,> 100,50,0.78,50,1.56,1.56,1.56,6.25,25,50,1.56,3.13,MIC [21]: 1.56 µg/mL; MIC [22]: 0.39 µg/mL
"CO/N=C(\C(=O)NC1C(=O)N2C(C(=O)O)=C(SC3CCOCC3)CS[C@H]12)c1csc(N)n1 (stereo partly shown) [Compound No. 7, 7-[(Z)-2-(2-aminothiazol-4-yl)-2-methoxyiminoacetamido]-3-(tetrahydropyran-4-yl)thio-3-cephem-4-carboxylic acid]",1.56,50,> 100,0.78,0.2,12.5,50,0.78,> 100,100,0.78,> 100,0.39,0.78,0.78,6.25,6.25,50,0.78,0.78,MIC [21]: 0.39 µg/mL; MIC [22]: 0.2 µg/mL
"CO/N=C(\C(=O)NC1C(=O)N2C(C(=O)O)=C(SCC3CCOC(C)(C)O3)CS[C@H]12)c1csc(N)n1 (stereo partly shown) [Compound No. 9, 7-[(Z)-2-(2-aminothiazol-4-yl)-2-methoxyiminoacetamido]-3-(2,2-dimethyl-1,3-dioxan-4-yl)methylthio-3-cephem-4-carboxylic acid]",1.56,100,> 100,3.13,1.56,12.5,100,3.13,> 100,50,1.56,100,3.13,1.56,3.13,6.25,25,50,3.13,6.25,MIC [21]: 1.56 µg/mL; MIC [22]: 0.78 µg/mL
"Nc1nc(/C(=N/O)C(=O)NC2C(=O)N3C(C(=O)O)=C(SCC4CCCO4)CS[C@H]23)cs1 (stereo partly shown) [Compound No. 11, 7-[(Z)-2-(2-aminothiazol-4-yl)-2-hydroxyiminoacetamido]-3-tetrahydrofurfurylthio-3-cephem-4-carboxylic acid]",1.56,50,> 100,1.56,0.39,12.5,50,1.56,> 100,> 100,0.78,6.25,0.78,0.2,6.75,6.25,6.25,50,1.56,0.78,MIC [21]: 0.2 µg/mL; MIC [22]: 0.78 µg/mL
"Nc1nc(/C(=N/O)C(=O)NC2C(=O)N3C(C(=O)O)=C(SC4CCOC4)CS[C@H]23)cs1 (stereo partly shown) [Compound No. 13, 7-[(Z)-2-(2-aminothiazol-4-yl)-2-hydroxyiminoacetamido]-3-(tetrahydrofuran-3-yl)thio-3-cephem-4-carboxylic acid]",1.56,12.5,> 100,0.39,0.2,12.5,50,6.25,> 100,> 100,0.39,12.5,0.2,0.2,6.25,3.13,3.13,100,3.13,0.39,MIC [21]: 0.2 µg/mL; MIC [22]: 1.56 µg/mL
